pEC50: −log10 of the molar value. Like-named read-outs stand apart in the source and are kept apart here.
Biological target: recombinant human GPR52 (Homo sapiens, UniProt Q9Y2T5)
Assay: HTRF cAMP assay, GPR52 activity (Example A)
Assay type: cell-based
Method: Compounds of Formula I were assessed for their ability to modulate GPR52 activity. HTRF CAMP assays were performed using a commercially available assay kit (CAMP Gs HiRange HTRF®, CisBio). Controls and compounds were solubilized in DMSO and 62.5 nanoliters of the diluted compounds were transferred into 384-well NBS assay plates via acoustic or precision low-volume dispensing. Compounds were further diluted to 1× with the addition of 20,000 cells per well. Flp-In™—CHO cells that stably express recombinant human GPR52 were used in the assay.
Cells were harvested with cell stripper and resuspended in stimulation buffer. After thirty minutes incubation at room temperature, detection reagents were added to each well. Plates were then incubated for an additional 30 minutes at room temperature. CAMP produced by the cells during the first incubation period competes with d2-labeled CAMP for binding to an anti-cAMP monoclonal antibody labeled with europium cryptate. The measured signal was inversely proportional to the concentration of cAMP produced by the cells and this signal was quantified using a PHERAstar® multi-mode plate reader.
Dose-response curves were generated from the HTRF counts that have been transformed based on a CAMP referenced curve, and then normalized to the positive control. EC50 values were obtained using a nonlinear regression curve-fitting program. […] The Emax (Table 13) is the maximum amount of cAMP (nM) produced by incubation of the cells with 10 μM or 31.6 μM of a test compound. The compound is defined by the top plateau of the sigmoid curve fit. The curve is then normalized to a control compound, in this case 4-(3-(3-fluoro-5-(trifluoromethyl)benzyl)-5-methyl-4,5-dihydro-1H-1,2,4-triazol-1-yl)-2-methylbenzamide (Tokumaru, K., et al., “Design, synthesis, and pharmacological evaluation of 4-azolyl-benzamide derivatives as novel GPR52 agonists”, Bioorganic & Medicinal Chemistry, Volume 25, Issue 12, June 2017, pages 3098-3115), and expressed as a percentage of the Emax of that control compound.

[1] = average EC50 (n=1 to 15), Flp-In-CHO cells stably expressing recombinant human GPR52, cAMP HTRF, read-out: EC50 (N=)
[2] = maximum cAMP at 10 μM or 31.6 μM test compound, as percentage of Emax of control compound 4-(3-(3-fluoro-5-(trifluoromethyl)benzyl)-5-methyl-4,5-dihydro-1H-1,2,4-triazol-1-yl)-2-methylbenzamide

Chain of recombinant human GPR52 (Q9Y2T5 whole entry): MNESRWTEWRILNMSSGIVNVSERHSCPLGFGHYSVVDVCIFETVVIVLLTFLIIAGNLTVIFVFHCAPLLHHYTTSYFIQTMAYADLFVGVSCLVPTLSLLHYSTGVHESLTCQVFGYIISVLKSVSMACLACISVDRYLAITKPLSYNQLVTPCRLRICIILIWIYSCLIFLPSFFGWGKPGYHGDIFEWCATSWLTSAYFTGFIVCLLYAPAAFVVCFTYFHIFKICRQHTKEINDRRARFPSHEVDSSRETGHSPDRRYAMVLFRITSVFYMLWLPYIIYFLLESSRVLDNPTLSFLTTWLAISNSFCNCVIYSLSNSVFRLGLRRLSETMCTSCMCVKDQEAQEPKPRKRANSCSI

SMILES | pEC50 [1] | Emax [2] | pEC50 (Flp-In-CHO cells expressing human GPR52, read-out: average EC50) | Emax (percentage of Emax of control compound)
Cc1cc(-c2cc(Oc3ccc4c(c3)OCO4)ccn2)ccc1C(N)=O [Example 85, 4-(4-(benzo[d][1,3]dioxol-5-yloxy)pyridin-2-yl)-2-methylbenzamide] | 6.00 to 7.00 | 106% |  | 
Cc1cc(-c2cc(Oc3ccc4cnccc4c3)ccn2)ccc1C(N)=O [Example 93, 4-(4-(isoquinolin-6-yloxy)pyridin-2-yl)-2-methylbenzamide] | 6.00 to 7.00 | 118% |  | 
Cc1cnc(-c2ccc(C(N)=O)c(C)c2)cc1Oc1ccc2cnn(C)c2c1 [Example 50, 2-methyl-4-(5-methyl-4-((1-methyl-1H-indazol-6-yl)oxy)pyridin-2-yl)benzamide] | 6.00 to 7.00 | 78% |  | 
CCc1cc(-c2cc(Oc3ccc4cnn(C)c4c3)cc3nccn23)ccc1C(N)=O [Example 26, 2-ethyl-4-(7-((1-methyl-1H-indazol-6-yl)oxy)imidazo[1,2-a]pyridin-5-yl)benzamide] | 7.00 to 7.60 | 75% |  | 
Cc1cc(-c2cc(Oc3ccc4c(C)nn(C)c4c3)cc(N)n2)ccc1C(N)=O [Example 19, 4-(6-amino-4-((1,3-dimethyl-1H-indazol-6-yl)oxy)pyridin-2-yl)-2-methylbenzamide] | 6.00 to 7.00 | 90% |  | 
CCc1cc(-c2cc(Oc3cnc4c(c3)c(C)nn4C)cc(N)n2)ccc1C(N)=O [Example 22, 4-(6-amino-4-((1,3-dimethyl-1H-pyrazolo[3,4-b]pyridin-5-yl)oxy)pyridin-2-yl)-2-ethylbenzamide] | 6.00 to 7.00 | 123% |  | 
CCc1cc(-c2cccc(Oc3ccc4cnn(C)c4c3)c2)ccc1C(N)=O [Example 52, 3-ethyl-3′-((1-methyl-1H-indazol-6-yl)oxy)-[1,1′-biphenyl]-4-carboxamide] | 5.70 to 6.00 | 86% |  | 
NC(=O)c1ccc(-c2cc(Oc3ccc4ccncc4c3)ccn2)cc1Cl [Example 80, 2-chloro-4-(4-(isoquinolin-7-yloxy)pyridin-2-yl)benzamide] | 6.00 to 7.00 | 54% |  | 
Cc1cc(-c2cc(Oc3cc(Cl)c4ncccc4c3)ccn2)ccc1C(N)=O [Example 100, 4-(4-((8-chloroquinolin-6-yl)oxy)pyridin-2-yl)-2-methylbenzamide] | 6.00 to 7.00 | 112% |  | 
CCn1ncc2ccc(Oc3ccnc(-c4ccc(C(N)=O)c(C)c4)c3)cc21 [Example 44, 4-(4-((1-ethyl-1H-indazol-6-yl)oxy)pyridin-2-yl)-2-methylbenzamide] | 6.00 to 7.00 | 91% |  | 
CCc1cc(-c2cc(Oc3cnc4c(c3)c(C)nn4C)cc3nccn23)ccc1C(N)=O [Example 78, 4-(7-((1,3-dimethyl-1H-pyrazolo[3,4-b]pyridin-5-yl)oxy)imidazo[1,2-a]pyridin-5-yl)-2-ethylbenzamide] | 6.00 to 7.00 | 94% |  | 
CCc1cc(-c2cccc(Oc3ccc4cnn(C)c4c3)c2)ccc1C(=O)NC [Example 65, 3-ethyl-N-methyl-3′-((1-methyl-1H-indazol-6-yl)oxy)-[1,1′-biphenyl]-4-carboxamide] | 5.70 to 6.00 | 83% |  | 
CCc1cc(-c2cc(Oc3ccc4cn[nH]c4c3)ccn2)ccc1C(N)=O [Example 41, 4-(4-((1H-indazol-6-yl)oxy)pyridin-2-yl)-2-ethylbenzamide] | 6.00 to 7.00 | 125% |  | 
Cc1cc(-c2cc(Oc3cccc4c3cnn4C)ccn2)ccc1C(N)=O [Example 7, 2-methyl-4-(4-((1-methyl-1H-indazol-4-yl)oxy)pyridin-2-yl)benzamide] | 5.70 to 6.00 | 68% |  | 

Next, values leading:

pEC50 [1] | Emax [2] | pEC50 (Flp-In-CHO cells expressing human GPR52, read-out: average EC50) | Emax (percentage of Emax of control compound) | SMILES
7.00 to 7.60 | 104% |  |  | Cc1cc(-c2cc(Oc3cc(F)c4cnn(C)c4c3)ccn2)ccc1C(N)=O [Example 39, 4-(4-((4-fluoro-1-methyl-1H-indazol-6-yl)oxy)pyridin-2-yl)-2-methylbenzamide]
6.00 to 7.00 | 101% |  |  | NC(=O)c1ccc(-c2cc(Oc3ccc4ncccc4c3)ccn2)cc1C(F)(F)F [Example 75, 4-(4-(quinolin-6-yloxy)pyridin-2-yl)-2-(trifluoromethyl)benzamide]
7.00 to 7.60 | 105% |  |  | CCc1cc(-c2cc(Oc3ccc4c(C)nn(C)c4c3)ccn2)ccc1C(N)=O [Example 53, 4-(4-((1,3-dimethyl-1H-indazol-6-yl)oxy)pyridin-2-yl)-2-ethylbenzamide]
6.00 to 7.00 | 63% |  |  | CCc1cc(-c2cc(Oc3cc(C)c4cnn(C)c4c3)ccn2)ccc1C(N)=O [Example 46, 4-(4-((1,4-dimethyl-1H-indazol-6-yl)oxy)pyridin-2-yl)-2-ethylbenzamide]
5.70 to 6.00 | 77% |  |  | CCc1cc(-c2cc(Oc3cnc4c(C)nn(C)c4c3)ccn2)cc(F)c1C(N)=O [Example 34, 4-(4-((1,3-dimethyl-1H-pyrazolo[4,3-b]pyridin-6-yl)oxy)pyridin-2-yl)-2-ethyl-6-fluorobenzamide]
5.70 to 6.00 | 68% |  |  | Cc1cc(-c2cc(Oc3ccc4ncn(C)c4c3)ccn2)ccc1C(N)=O [Example 8, 2-methyl-4-(4-((1-methyl-1H-benzo[d]imidazol-6-yl)oxy)pyridin-2-yl)benzamide]
6.00 to 7.00 | 115% |  |  | CCc1cc(-c2cc(Oc3cnc4c(F)cc(F)cc4c3)ccn2)ccc1C(N)=O [Example 117, 4-(4-((6,8-difluoroquinolin-3-yl)oxy)pyridin-2-yl)-2-ethylbenzamide]
6.00 to 7.00 | 126% |  |  | Cc1cc(-c2cc(Oc3ccc4c(c3)c(F)nn4C)ccn2)ccc1C(N)=O [Example 129, 4-(4-((3-fluoro-1-methyl-1H-indazol-5-yl)oxy)pyridin-2-yl)-2-methylbenzamide]
5.70 to 6.00 | 87% |  |  | Cc1nn(C)c2cc(Oc3ccnc(-c4ccc(C(N)=O)c(C(F)(F)F)c4)c3)cnc12 [Example 30, 4-(4-((1,3-dimethyl-1H-pyrazolo[4,3-b]pyridin-6-yl)oxy)pyridin-2-yl)-2-(trifluoromethyl)benzamide]
6.00 to 7.00 | 106% | 6.57 | 106% | CCc1cc(-c2cc(Oc3cnc4c(C)nn(C)c4c3)ccn2)ccc1C(N)=O [Example 1, 4-(4-((1,3-dimethyl-1H-pyrazolo[4,3-b]pyridin-6-yl)oxy)pyridin-2-yl)-2-ethylbenzamide]
6.00 to 7.00 | 115% |  |  | Cc1cc(-c2cc(Oc3ccc4c(C)nn(C(F)(F)F)c4c3)ccn2)ccc1C(N)=O [Example 135, 2-methyl-4-(4-((3-methyl-1-(trifluoromethyl)-1H-indazol-6-yl)oxy)pyridin-2-yl)benzamide]
7.00 to 7.60 | 104% |  |  | CCc1cc(-c2cc(Oc3cc(F)c4c(C)nn(C)c4c3)ccn2)ccc1C(N)=O [Example 38, 2-ethyl-4-(4-((4-fluoro-1,3-dimethyl-1H-indazol-6-yl)oxy)pyridin-2-yl)benzamide]
7.00 to 7.60 | 92% |  |  | Cc1nn(C)c2cc(Oc3ccnc(-c4ccc(C(N)=O)c(Cl)c4)c3)ccc12 [Example 40, 2-chloro-4-(4-((1,3-dimethyl-1H-indazol-6-yl)oxy)pyridin-2-yl)benzamide]
6.00 to 7.00 | 85% |  |  | CNc1cc(-c2cc(Oc3ccc4c(C)nn(C)c4c3)ccn2)ccc1C(N)=O [Example 35, 4-(4-((1,3-dimethyl-1H-indazol-6-yl)oxy)pyridin-2-yl)-2-(methylamino)benzamide]
